Laboratory results reported in patent US12171229B2, “Heteroaryl-triazole and heteroaryl-tetrazole compounds as pesticides” (BAYER AKTIENGESELLSCHAFT, priority 2018, dated 2024).

What was measured:
Assay type in all cases: in vivo
[1] = tested on: Diabrotica balteata; assay: Diabrotica balteata spray test; details: after 7 days, larvae on wheat seeds; for pest or weed control at 160 µg/disc, 500 g/ha / pest or weed control at 80 µg/disc, 250 g/ha: Diabrotica balteata, in Triticum aestivum, 168 h, read-out: efficacy (seedlings grown up); for pest or weed control at 80 µg/disc, 250 g/ha: 80 μg/well (=250 g/ha)
Method: Diabrotica balteata—Spray Test [table] To produce a suitable preparation of active compound, 1 part by weight of active compound is mixed with the stated amount of solvent, and the concentrate is diluted with water, containing an emulsifier concentration of 1000 ppm, to the desired concentration. Further test concentrations are prepared by dilution with emulsifier containing water. Soaked wheat seeds (Triticum aestivum) are placed in a multiple well plate filled with agar and some water and are incubated for 1 day to germinate (5 seeds per well). The germinated wheat seeds are sprayed with a test solution containing the desired concentration of the active ingredient. Afterwards each unit is infected with 10-20 larvae of the banded cucumber beetle (Diabrotica balteata). After 7 days efficacy in % is determined. 100% means all the seedlings have grown up like in the untreated, uninfected control; 0% means none of the seedlings have grown.

[2] = tested on: Boophilus microplus; assay: Boophilus microplus injection test; details: 20 μg/animal injected into the abdomen, adult engorged female ticks, egg deposition after 7 days; for pest or weed control at 0.02 mg: Rhipicephalus microplus, 168 h, read-out: efficacy (infertile eggs)
Method: Boophilus Microplus—Injection Test Solvent: dimethyl sulfoxide To produce a suitable preparation of active compound, 10 mg of active compound are dissolved in 0.5 ml solvent, and the concentrate is diluted with solvent to the desired concentration. Five adult engorged female ticks (Boophilus microplus) are injected with 1 μl compound solution into the abdomen. The ticks are transferred into replica plates and incubated in a climate chamber. After 7 days egg deposition of fertile eggs is monitored. Eggs where fertility is not visible are stored in a climate chamber till hatching after about 42 days. An efficacy of 100% means all eggs are infertile; 0% means all eggs are fertile.

[3] = tested on: Spodoptera frugiperda; assay: Spodoptera frugiperda spray test; details: 168 h, after 7 days, larvae on maize leaf sections
Method: Spodoptera frugiperda—Spray Test
To produce a suitable preparation of active compound, 1 part by weight of active compound is mixed with the stated amount of solvents and is diluted with water, containing an emulsifier concentration of 1000 ppm, to the desired concentration. Further test concentrations are prepared by dilution with emulsifier containing water.
Maize (Zea mays) leaf sections are sprayed with a preparation of the active ingredient of the desired concentration. Once dry, the leaf sections are infested with fall armyworm larvae (Spodoptera frugiperda).
After 7 days mortality in % is determined. 100% means all caterpillars have been killed and 0% means none of the caterpillars have been killed.

[4] = tested on: Nezara viridula; assay: Nezara viridula spray test; details: 96 h, after 4 days, larvae on barley plants
Method: Nezara viridula—Spray Test
To produce a suitable preparation of active compound, 1 part by weight of active compound is mixed with the stated amount of solvent, and the concentrate is diluted with water, containing an emulsifier concentration of 1000 ppm, to the desired concentration. Further test concentrations are prepared by dilution with emulsifier containing water.
Barley plants (Hordeum vulgare) infested with larvae of the southern green stink bug (Nezara viridula) are sprayed with a test solution containing the desired concentration of the active ingredient.
After 4 days mortality in % is determined. 100% means all the stink bugs have been killed: 0% means none of the stink bugs have been killed.

[5] = tested on: Ctenocephalides felis; assay: Ctenocephalides felis oral test; details: 48 h, 100 ppm in cattle blood, after 2 days, adult unfed cat fleas
Method: Ctenocephalides Felis—Oral Test
Solvent: dimethyl sulfoxide
To produce a suitable preparation of active compound, 10 mg of active compound are dissolved in 0.5 ml solvent, and the concentrate is diluted with cattle blood to the desired concentration.
Approximately 20 adult unfed cat fleas (Ctenocephalides felis) are placed in flea chambers. The blood chamber, sealed with parafilm on the bottom, are filled with cattle blood supplied with compound solution and placed on the gauze covered top of the flea chamber, so that the fleas are able to suck the blood. The blood chamber is heated to 37° C. whereas the flea chamber is kept at room temperature.
After 2 days mortality in % is determined. 100% means all the fleas have been killed; 0% means none of the fleas have been killed.

Structure (SMILES)	pest or weed control at 160 µg/disc, 500 g/ha ([1]; 160 μg/well (=500 g/ha))	pest or weed control at 80 µg/disc, 250 g/ha [1]	mortality at 500 g/ha [3]	mortality at 100 ppm [5]	also measured
C[C@H](NC(=O)c1cc(Cl)cc(C(F)(F)F)c1)c1ncnn1C1CCS(=O)(=O)C1 (single isomer, unassigned) [Example I-025]	–	–	–	–	efficacy (seedlings grown up) ([1]; 160 μg/well (=500 g/ha)): 80%; efficacy (infertile eggs) [2]: 100%
CC(c1ncnn1-c1cnc2ccccc2n1)N(CC1CC1)C(=O)c1cc(Cl)cc(C(F)(F)F)c1 (stereo not drawn) [Example I-004]	100%	–	–	–	–
C[C@H](NC(=O)c1cc(Cl)cc(C(F)(F)F)c1)c1ncnn1-c1nnc(C(F)(F)F)s1 [Example I-017]	–	–	–	–	pest or weed control at 0.02 mg [2]: 90%
C[C@H](NC(=O)c1cc(Cl)cc(C(F)(F)F)c1)c1ncnn1-c1nc(C(F)F)c(Cl)s1 [Example I-022]	100%	100%	83%	–	pest or weed control at 0.02 mg [2]: 100%
C[C@H](NC(=O)c1cc(Cl)cc(C(F)(F)F)c1)c1ncnn1-c1nnc(-c2ccc(F)cc2)s1 [Example I-023]	–	–	–	–	mortality at 100 g/ha ([4]; 100 g/ha): 100%
C[C@H](NC(=O)c1cc(Cl)cc(C(F)(F)F)c1)c1ncnn1-c1ccc(OC(F)F)cn1 [Example I-029]	100%	100%	100%	–	mortality at 100 g/ha [3]: 100%; mortality at 500 g/ha [4]: 100%
COC(=O)c1ccc(-n2ncnc2[C@H](C)NC(=O)c2cc(Cl)cc(C(F)(F)F)c2)nc1 [Example I-031]	100%	–	–	–	pest or weed control at 0.02 mg [2]: 100%
C[C@H](NC(=O)c1cc(Cl)cc(C(F)(F)F)c1)c1ncnn1-c1nc(-c2ccccc2F)cs1 [Example I-043]	100%	–	–	–	–
C[C@H](NC(=O)c1cc(Cl)cc(C(F)(F)F)c1)c1ncnn1-c1cccc(C#N)n1 [Example I-055]	–	–	–	–	pest or weed control at 0.02 mg [2]: 100%
C[C@H](NC(=O)c1cc(F)cc(C(F)(F)F)c1)c1ncnn1-c1nc2ccccc2o1 [Example I-058]	–	–	–	100%	pest or weed control at 0.02 mg [2]: 100%
C[C@H](NC(=O)c1cc(Cl)cc(C(F)(F)F)c1)c1ncnn1-c1cccc(OCC(F)(F)F)n1 [Example I-059]	100%	–	–	–	–
C[C@H](NC(=O)c1cc(Cl)cc(C(F)(F)F)c1)c1ncnn1-c1ccc(OCC(F)(F)C(F)(F)F)cn1 [Example I-060]	–	80%	100%	100%	mortality at 100 g/ha [3]: 100%
C[C@H](NC(=O)c1cc(Cl)cc(C(F)(F)F)c1)c1ncnn1-c1cccc(S(C)(=O)=O)n1 [Example I-064]	–	–	–	–	pest or weed control at 0.02 mg [2]: 80%
CC[C@H](NC(=O)c1cc(C(F)(F)F)cc(C(F)(F)F)c1)c1ncnn1-c1ccc(C#N)cn1 [Example I-068]	100%	100%	100%	–	pest or weed control at 0.02 mg [2]: 100%; mortality at 100 g/ha [3]: 100%
CC(NC(=O)c1cc(Cl)cc(C(F)(F)F)c1)c1ncnn1C1=NCCS1 (stereo not drawn) [Example I-075]	100%	100%	–	100%	–
C[C@H](NC(=O)c1cc(Cl)cc(C(F)(F)F)c1)c1ncnn1-c1nc(C(F)(F)F)cs1 [Example I-084]	100%	100%	–	–	–
C[C@H](NC(=O)c1cc(Cl)cc(C(F)(F)F)c1)c1ncnn1-c1ccc(-n2ccnc2)cn1 [Example I-086]	–	100%	83%	100%	–
C[C@H](NC(=O)c1cc(Cl)cc(C(F)(F)F)c1)c1ncnn1-c1ccc(-n2cncn2)cn1 [Example I-087]	–	–	100%	–	mortality at 100 g/ha [3]: 100%
C[C@H](NC(=O)c1cc(Cl)cc(C(F)(F)F)c1)c1ncnn1-c1ncc(Cl)s1 [Example I-090]	100%	100%	100%	100%	mortality at 100 g/ha [3]: 100%; mortality at 500 g/ha [4]: 100%
COc1cc(C(=O)N[C@@H](C)c2ncnn2-c2ccc(C#N)cn2)cc(C(F)(F)F)c1 [Example I-092]	100%	100%	100%	100%	mortality at 100 g/ha [3]: 100%; mortality at 500 g/ha [4]: 90%
COc1cc(C(=O)N[C@@H](C)c2ncnn2-c2nccs2)cc(C(F)(F)F)c1 [Example I-093]	100%	100%	100%	100%	mortality at 500 g/ha [4]: 100%
CC[C@H](NC(=O)c1cc(Cl)cc(OC(F)(F)F)c1)c1ncnn1-c1ccc(NC(C)=O)cn1 [Example I-095]	–	–	–	100%	–
CC[C@H](NC(=O)c1cc(Cl)cc(OC(F)(F)F)c1)c1ncnn1-c1ccc(NC(=O)C2CC2)cn1 [Example I-096]	100%	100%	–	100%	–
C[C@H](NC(=O)c1cc(Cl)cc(C(F)(F)F)c1)c1ncnn1-c1ccc(NC(=S)CC2CC2)cn1 [Example I-097]	100%	100%	100%	100%	–
CC(C)C(=S)Nc1ccc(-n2ncnc2[C@H](C)NC(=O)c2cc(Cl)cc(C(F)(F)F)c2)nc1 [Example I-099]	100%	100%	100%	100%	–
COc1cc(C(=O)N[C@@H](C)c2ncnn2-c2ncc(F)cc2F)cc(C(F)(F)F)c1 [Example I-102]	–	100%	–	–	mortality at 500 g/ha [4]: 100%
C[C@H](NC(=O)c1cc(Cl)cc(Cl)c1)c1ncnn1-c1nccs1 [Example I-108]	100%	–	83%	–	–
C[C@H](NC(=O)c1cc(Cl)cc(OC(F)(F)F)c1)c1ncnn1-c1ccc(NC(=O)C2(Cl)CC2)cn1 [Example I-113]	80%	–	100%	–	mortality at 100 g/ha [3]: 80%; mortality at 500 g/ha [4]: 100%
